Columns and labels:
Format in all cases: cell-based
CaV2.2 = biological target: T1, CaV2.2 (Homo sapiens, UniProt Q00975); experiment: VIPR optical membrane potential assay with electrical stimulation, CaV2.2; conditions: Table 9, CaV 2.2 receptors
T1 construct: expressed in transfected cells; host or cells: HEK293
Summary of the method: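 HEK293 cells stably expressing CaV2.2 stained with CC2-DMPE/DiSBAC2(3) voltage-sensitive dyes (10 μM final CC2-DMPE, 30 min, RT), then compound added and cells electrically stimulated for 3-5 s. Read-out: background-subtracted 460/580 nm emission ratio; response R=Rf/Ri (post- vs pre-stimulus ratio); antagonism seen as reduced response.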

NaV1.3 = biological target: T2, NaV1.3 (Homo sapiens, UniProt Q9NY46); experiment: VIPR optical membrane potential assay with electrical stimulation, NaV1.3; conditions: Table 9, NaV 1.3 receptors
T2 construct: expressed in transfected cells; host or cells: HEK293
Summary of the method: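 HEK293 cells stably expressing NaV1.3, stained with CC2-DMPE (10 μM final) then DiSBAC2(3) with ABSC1, 30 min each at RT; compounds added with oxonol. Electrical stimulation for 3 s; 460/580 nm background-subtracted emission ratio Rf/Ri, normalised to tetracaine (positive) and untreated (negative) controls.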

NaV1.8 = NaV1.8 (Homo sapiens, UniProt Q9Y5Y9); experiment: VIPR optical membrane potential assay, NaV1.8 (other subtypes in an analogous mode); conditions: Table 9, NaV 1.8 receptors
Summary of the method: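 Cells expressing the NaV subtype stained with coumarin and DiSBAC2(3) membrane-potential dyes, then incubated with test compound for 20-30 minutes. Depolarization evoked by sodium addback and read optically on VIPR; block measured as reduced membrane-potential response, with tetracaine as positive control.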

Chain of NaV1.8 (Q9Y5Y9 whole entry): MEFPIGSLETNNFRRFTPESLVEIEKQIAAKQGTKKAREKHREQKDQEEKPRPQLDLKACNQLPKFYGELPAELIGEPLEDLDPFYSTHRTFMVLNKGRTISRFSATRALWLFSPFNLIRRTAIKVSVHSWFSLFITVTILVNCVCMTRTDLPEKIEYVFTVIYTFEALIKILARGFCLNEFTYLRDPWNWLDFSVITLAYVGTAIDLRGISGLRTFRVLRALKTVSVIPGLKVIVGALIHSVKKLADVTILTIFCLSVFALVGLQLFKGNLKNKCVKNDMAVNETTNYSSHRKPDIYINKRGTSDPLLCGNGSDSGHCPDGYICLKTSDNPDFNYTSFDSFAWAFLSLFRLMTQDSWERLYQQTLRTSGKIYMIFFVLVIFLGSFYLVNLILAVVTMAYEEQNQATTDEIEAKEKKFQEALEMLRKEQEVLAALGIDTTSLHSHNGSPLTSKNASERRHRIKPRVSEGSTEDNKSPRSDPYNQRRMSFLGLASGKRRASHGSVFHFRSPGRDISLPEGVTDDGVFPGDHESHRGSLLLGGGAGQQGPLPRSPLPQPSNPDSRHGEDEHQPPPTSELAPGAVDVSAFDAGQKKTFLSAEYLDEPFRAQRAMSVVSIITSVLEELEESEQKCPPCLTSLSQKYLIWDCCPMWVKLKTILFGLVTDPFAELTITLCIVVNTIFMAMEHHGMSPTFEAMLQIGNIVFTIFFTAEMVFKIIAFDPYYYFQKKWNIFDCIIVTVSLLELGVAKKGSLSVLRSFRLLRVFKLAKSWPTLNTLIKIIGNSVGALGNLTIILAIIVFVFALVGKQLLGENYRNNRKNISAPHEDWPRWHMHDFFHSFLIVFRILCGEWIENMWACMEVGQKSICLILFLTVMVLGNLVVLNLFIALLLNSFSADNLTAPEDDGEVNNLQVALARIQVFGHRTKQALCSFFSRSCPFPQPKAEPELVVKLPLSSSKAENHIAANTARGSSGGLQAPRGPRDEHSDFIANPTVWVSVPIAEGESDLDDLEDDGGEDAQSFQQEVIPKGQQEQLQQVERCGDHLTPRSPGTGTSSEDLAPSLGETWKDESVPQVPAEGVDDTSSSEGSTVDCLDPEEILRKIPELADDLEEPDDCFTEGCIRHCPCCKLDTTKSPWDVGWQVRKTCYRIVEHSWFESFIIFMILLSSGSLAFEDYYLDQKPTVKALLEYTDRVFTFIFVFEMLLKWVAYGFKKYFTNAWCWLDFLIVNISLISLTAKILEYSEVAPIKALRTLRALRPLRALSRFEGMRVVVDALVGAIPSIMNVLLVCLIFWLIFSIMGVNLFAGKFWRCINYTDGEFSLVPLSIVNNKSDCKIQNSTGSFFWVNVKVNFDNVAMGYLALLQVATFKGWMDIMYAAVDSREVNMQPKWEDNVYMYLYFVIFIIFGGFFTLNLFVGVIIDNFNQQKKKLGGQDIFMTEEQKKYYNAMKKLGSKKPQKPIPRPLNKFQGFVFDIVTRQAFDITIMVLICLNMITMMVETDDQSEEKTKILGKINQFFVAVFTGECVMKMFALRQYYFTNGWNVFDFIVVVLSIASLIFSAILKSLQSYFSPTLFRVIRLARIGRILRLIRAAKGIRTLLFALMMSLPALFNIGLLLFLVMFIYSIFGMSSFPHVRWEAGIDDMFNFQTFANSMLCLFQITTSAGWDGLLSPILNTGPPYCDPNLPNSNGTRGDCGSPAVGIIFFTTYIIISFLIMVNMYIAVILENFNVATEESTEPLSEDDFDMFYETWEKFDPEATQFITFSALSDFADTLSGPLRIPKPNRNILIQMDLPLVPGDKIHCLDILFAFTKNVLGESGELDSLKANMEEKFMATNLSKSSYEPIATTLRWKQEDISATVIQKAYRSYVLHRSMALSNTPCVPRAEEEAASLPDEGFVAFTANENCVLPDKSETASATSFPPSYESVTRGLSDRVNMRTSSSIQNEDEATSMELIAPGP
T2 sequence (Q9NY46 whole entry): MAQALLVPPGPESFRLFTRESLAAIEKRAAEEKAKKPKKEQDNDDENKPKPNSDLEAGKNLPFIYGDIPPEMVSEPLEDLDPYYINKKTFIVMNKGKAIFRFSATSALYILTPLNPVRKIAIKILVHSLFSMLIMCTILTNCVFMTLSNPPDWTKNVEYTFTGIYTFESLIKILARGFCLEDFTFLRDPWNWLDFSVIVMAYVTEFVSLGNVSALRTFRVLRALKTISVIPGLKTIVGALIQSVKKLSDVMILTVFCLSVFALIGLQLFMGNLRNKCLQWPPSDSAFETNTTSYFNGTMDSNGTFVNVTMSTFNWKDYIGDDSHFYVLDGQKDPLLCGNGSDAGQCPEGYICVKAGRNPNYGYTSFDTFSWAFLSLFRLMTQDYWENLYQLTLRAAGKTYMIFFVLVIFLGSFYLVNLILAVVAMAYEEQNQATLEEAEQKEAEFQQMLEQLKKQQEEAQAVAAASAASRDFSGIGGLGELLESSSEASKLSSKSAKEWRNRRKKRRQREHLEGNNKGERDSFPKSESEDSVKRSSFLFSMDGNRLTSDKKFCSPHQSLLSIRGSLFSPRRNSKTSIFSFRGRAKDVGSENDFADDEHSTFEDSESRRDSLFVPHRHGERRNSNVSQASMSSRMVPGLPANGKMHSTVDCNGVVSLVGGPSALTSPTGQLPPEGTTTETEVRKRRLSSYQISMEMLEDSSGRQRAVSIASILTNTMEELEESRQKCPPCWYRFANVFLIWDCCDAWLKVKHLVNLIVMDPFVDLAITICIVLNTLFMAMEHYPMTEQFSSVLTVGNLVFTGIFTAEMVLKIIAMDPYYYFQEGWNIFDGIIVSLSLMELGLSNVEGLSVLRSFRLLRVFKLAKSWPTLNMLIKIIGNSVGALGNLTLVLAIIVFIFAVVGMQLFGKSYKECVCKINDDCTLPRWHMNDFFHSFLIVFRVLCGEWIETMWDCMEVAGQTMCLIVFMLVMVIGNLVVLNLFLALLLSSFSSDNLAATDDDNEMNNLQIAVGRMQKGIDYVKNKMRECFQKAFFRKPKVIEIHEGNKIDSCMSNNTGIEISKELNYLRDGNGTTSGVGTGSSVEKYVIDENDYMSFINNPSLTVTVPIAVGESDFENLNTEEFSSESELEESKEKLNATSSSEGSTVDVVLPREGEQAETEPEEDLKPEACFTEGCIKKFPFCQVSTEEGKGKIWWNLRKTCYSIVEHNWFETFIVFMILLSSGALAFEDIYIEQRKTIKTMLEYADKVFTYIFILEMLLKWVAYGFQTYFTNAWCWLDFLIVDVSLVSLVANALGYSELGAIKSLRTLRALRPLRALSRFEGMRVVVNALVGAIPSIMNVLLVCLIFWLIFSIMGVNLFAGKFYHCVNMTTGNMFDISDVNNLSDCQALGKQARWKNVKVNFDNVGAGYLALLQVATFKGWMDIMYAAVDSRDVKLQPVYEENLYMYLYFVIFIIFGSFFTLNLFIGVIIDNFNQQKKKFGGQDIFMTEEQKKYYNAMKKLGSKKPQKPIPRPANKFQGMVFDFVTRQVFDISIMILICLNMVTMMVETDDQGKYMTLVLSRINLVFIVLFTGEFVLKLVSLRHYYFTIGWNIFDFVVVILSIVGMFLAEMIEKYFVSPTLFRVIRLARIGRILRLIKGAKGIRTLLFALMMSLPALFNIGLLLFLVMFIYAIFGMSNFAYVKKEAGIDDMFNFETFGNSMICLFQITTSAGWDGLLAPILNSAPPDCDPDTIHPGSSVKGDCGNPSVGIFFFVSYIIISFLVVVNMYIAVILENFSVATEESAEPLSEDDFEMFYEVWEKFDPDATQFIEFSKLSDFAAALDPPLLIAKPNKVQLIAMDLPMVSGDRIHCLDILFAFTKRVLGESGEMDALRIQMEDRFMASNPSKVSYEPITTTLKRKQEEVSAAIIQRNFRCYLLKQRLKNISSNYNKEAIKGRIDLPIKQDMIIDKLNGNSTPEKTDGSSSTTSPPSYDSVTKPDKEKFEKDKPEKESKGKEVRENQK

| SMILES | IC50 (CaV2.2) [µM] | IC50 (NaV1.3) [µM] | IC50 (NaV1.8) [µM] |
| --- | --- | --- | --- |
| CC(C)N(Cc1ccccc1)C(=O)c1cnc(N2CCOCC2)nc1-c1ccc(Oc2ccccc2)cc1 [compound 123] | 2 to 10 | > 10 | > 10 |
| O=C(c1cnc(N2CCOCC2)nc1-c1ccccc1F)N(Cc1ccc(C(F)(F)F)cc1)C1CC1 [compound 124] | 2 to 10 | 2 to 10 | > 10 |
| CC(C)N(C(=O)c1cnc(N2CCCCC2)nc1-c1ccccc1F)c1cccc(C#N)c1 [compound 125] | 2 to 10 | > 10 | > 10 |
| CN1CCN(c2ncc(C(=O)N(Cc3ccc(C(F)(F)F)cc3)C3CC3)c(-c3ccccc3F)n2)CC1 [compound 126] | 2 to 10 | > 10 | > 10 |
| COc1cccc(N(C(=O)c2cnc(N3CCCCC3)nc2-c2ccccc2F)C2CCCCC2)c1 [compound 127] | 2 to 10 | 2 to 10 | > 10 |
| O=C(c1cnc(N2CCOCC2)nc1-c1ccccc1F)N(Cc1ccc(F)cc1)C1CC1 [compound 128] | 2 to 10 | 2 to 10 | > 10 |
| CN1CCN(c2ncc(C(=O)N(Cc3ccccc3)C3CC3)c(-c3ccccc3F)n2)CC1 [compound 129] | > 10 | > 10 | > 10 |
| CC(C)N(Cc1ccccc1)C(=O)c1cnc(N2Cc3ccccc3C2)nc1-c1ccccc1F [compound 130] | 2 to 10 | 2 to 10 | > 10 |
| COc1cccc(CN(C(=O)c2cnc(N3CCSCC3)nc2-c2ccccc2F)C(C)C)c1 [compound 131] | < 2 | 2 to 10 | 2 to 10 |
| CC(C)N(Cc1ccccc1)C(=O)c1cnc(Nc2cccc(O)c2)nc1-c1ccccc1F [compound 132] | > 10 | > 10 | > 10 |
| COc1cccc(N(C(=O)c2cnc(N3CCCCC3)nc2-c2ccccc2F)C(C)C)c1 [compound 133] | 2 to 10 | 2 to 10 | > 10 |
| COc1cccc(CN(C(=O)c2cnc(N3Cc4ccccc4C3)nc2-c2ccccc2F)C(C)C)c1 [compound 134] | < 2 | 2 to 10 | > 10 |
| CC(C)N(Cc1ccccc1)C(=O)c1cnc(NCc2cccc3ccccc23)nc1-c1ccccc1F [compound 135] | 2 to 10 | > 10 | > 10 |
| O=C(c1cnc(N2CCCCC2)nc1-c1ccccc1F)N(Cc1ccccc1)C1CCCC1 [compound 136] | 2 to 10 | 2 to 10 | > 10 |
| CC(C)N(Cc1ccc(N2CCCC2)cc1)C(=O)c1cnc(N2CCC3CCCCC3C2)nc1-c1ccccc1F (stereo not drawn) [compound 137] | < 2 | > 10 | > 10 |
| O=C(c1cnc(N2CCOCC2)nc1-c1ccccc1F)N(Cc1cccnc1)C1CC1 [compound 138] | > 10 | > 10 | > 10 |
| CC(C)N(Cc1ccccc1)C(=O)c1cnc(N2CCOCC2)nc1-c1cc(F)cc(F)c1 [compound 139] | 2 to 10 | 2 to 10 | 2 to 10 |
| CC(C)N(C(=O)c1cnc(N2CCCCC2)nc1-c1ccccc1F)c1cccc([N+](=O)[O-])c1 [compound 140] | 2 to 10 | 2 to 10 | > 10 |
| CC(C)N(C(=O)c1cnc(N2CCC3CCCCC3C2)nc1-c1ccccc1F)C1CCSC1 (stereo not drawn) [compound 141] | 2 to 10 | > 10 | > 10 |
| COc1ccc(CN(C(=O)c2cnc(N3CCOCC3)nc2-c2ccccc2F)C2CC2)cc1 [compound 142] | < 2 | < 2 | < 2 |
| Cc1nc(N2CCOCC2)nc(-c2ccccc2F)c1C(=O)N(Cc1ccccc1)C1CCCC1 [compound 143] | 2 to 10 | 2 to 10 | 2 to 10 |
| COc1cc2c(cc1OC)CN(C(=O)c1cnc(N3CCOCC3)nc1-c1ccccc1F)CC2 [compound 144] | > 10 | > 10 | > 10 |
| Cc1nc(N2CCOCC2)nc(-c2ccccc2F)c1C(=O)N(Cc1ccccc1)C1CC1 [compound 145] | 2 to 10 | 2 to 10 | > 10 |
| CC(C)N(Cc1ccc2c(c1)OCO2)C(=O)c1cnc(N2CCCCC2)nc1-c1ccccc1Cl [compound 146] | 2 to 10 | 2 to 10 | 2 to 10 |
| CN1CCN(c2ncc(C(=O)N(Cc3ccccc3)C3CCCCC3)c(-c3ccccc3F)n2)CC1 [compound 147] | 2 to 10 | > 10 | > 10 |
| CN1CCN(c2ncc(C(=O)N(Cc3ccccc3)C3CCCC3)c(-c3ccccc3F)n2)CC1 [compound 148] | 2 to 10 | > 10 | > 10 |

| SMILES | IC50 (CaV2.2) [µM] | IC50 (NaV1.3) [µM] | IC50 (NaV1.8) [µM] |
| --- | --- | --- | --- |
| CC(C)N(C(=O)c1cnc(N2CCCCC2)nc1-c1ccccc1F)C1CCSC1 (stereo not drawn) [compound 149] | > 10 | > 10 | > 10 |
| CC1Cc2ccccc2N1C(=O)c1cnc(N2CCOCC2)nc1-c1ccccc1F (stereo not drawn) [compound 150] | > 10 | > 10 | > 10 |
| CC(C)N(C(=O)c1cnc(N2CCC3CCCCC3C2)nc1-c1ccccc1F)c1ccc2c(c1)OCCO2 (stereo not drawn) [compound 151] | 2 to 10 | 2 to 10 | > 10 |
| CC(C)N(C(=O)c1cnc(N2CCCCC2)nc1-c1ccccc1F)c1cccc(N(C)C)c1 [compound 152] | 2 to 10 | 2 to 10 | > 10 |
| CC(C)N(Cc1ccccc1)C(=O)c1cnc(NCC(=O)O)nc1-c1ccccc1F [compound 153] | > 10 | > 10 | > 10 |
| COc1cccc(N(C(=O)c2cnc(N3CCC4CCCCC4C3)nc2-c2ccccc2F)C2CCCC2)c1 (stereo not drawn) [compound 154] | 2 to 10 | > 10 | > 10 |
| CC(C)N(C(=O)c1cnc(N2CCCCC2)nc1-c1ccccc1Cl)C1CCSC1 (stereo not drawn) [compound 155] | 2 to 10 | > 10 | > 10 |
| C=CCN(CC=C)c1ncc(C(=O)N(Cc2ccccc2)C(C)C)c(-c2ccccc2F)n1 [compound 156] | < 2 | 2 to 10 | 2 to 10 |
| O=C(c1cnc(N2CCSCC2)nc1-c1ccccc1F)N(Cc1ccccc1)C1CCCC1 [compound 157] | 2 to 10 | 2 to 10 | > 10 |
| COc1cccc(N(C(=O)c2cnc(N3CCCCC3)nc2-c2ccccc2F)C2CC2)c1 [compound 158] | > 10 | > 10 | > 10 |
| O=C(c1cnc(N2CCOCC2)nc1-c1ccccc1F)N(Cc1ccccc1)C1CCCC1 [compound 159] | 2 to 10 | 2 to 10 | 2 to 10 |
| COc1cccc(N(C(=O)c2cnc(N3CCOCC3)nc2-c2ccccc2F)C(C)C)c1 [compound 160] | > 10 | > 10 | > 10 |
| CC(C)(C)c1ccc(CN(C(=O)c2cnc(N3CCOCC3)nc2-c2ccccc2F)C2CC2)cc1 [compound 161] | 2 to 10 | 2 to 10 | 2 to 10 |
| COc1cccc(CN(C(=O)c2cnc(N3CCC4CCCCC4C3)nc2-c2ccccc2F)C(C)C)c1 (stereo not drawn) [compound 162] | < 2 | < 2 | > 10 |
| Cc1cccc(CN(C(=O)c2cnc(N3CCOCC3)nc2-c2ccccc2F)C2CC2)c1 [compound 163] | 2 to 10 | > 10 | > 10 |
| COc1ccc(CN(C(=O)c2cnc(N3CCSCC3)nc2-c2ccccc2F)C2CC2)cc1 [compound 164] | 2 to 10 | 2 to 10 | 2 to 10 |
| CC(C)N(C(=O)c1cnc(N2CCOCC2)nc1-c1ccccc1F)c1cccc(C(C)(C)C)c1 [compound 165] | > 10 | 2 to 10 | > 10 |
| CC(C)N(Cc1ccccc1)C(=O)c1cnc(N2CCN(C)CC2)nc1-c1ccccc1F [compound 167] | > 10 | > 10 | > 10 |
| CC(=O)Nc1ccc(-c2nc(N3CCOCC3)ncc2C(=O)N(Cc2ccccc2)C(C)C)cc1 [compound 168] | > 10 | > 10 | > 10 |
| COc1cccc(N(C(=O)c2cnc(N3CCOCC3)nc2-c2ccccc2F)C2CCCC2)c1 [compound 169] | > 10 | 2 to 10 | > 10 |
| CC(C)Oc1ccc(-c2nc(N3CCOCC3)ncc2C(=O)N(Cc2ccccc2)C(C)C)cc1 [compound 170] | > 10 | > 10 | > 10 |
| CC(C)N(C(=O)c1cnc(N2CCCCC2)nc1-c1ccccc1F)c1ccc2c(c1)OCCO2 [compound 171] | 2 to 10 | 2 to 10 | > 10 |
| CC(C)N(C(=O)c1cnc(N2CCOCC2)nc1-c1ccccc1F)C1CCSC1 (stereo not drawn) [compound 172] | > 10 | > 10 | > 10 |
| CC(C)N(Cc1ccccc1)C(=O)c1cnc(NCCc2cccc(C(F)(F)F)c2)nc1-c1ccccc1F [compound 173] | < 2 | 2 to 10 | > 10 |
| O=C(NC1CCC1)c1cnc(N2CCOCC2)nc1-c1ccccc1F [compound 174] | > 10 | > 10 | > 10 |
| COc1cccc(N(C(=O)c2cnc(N3CCCCC3)nc2-c2ccccc2Cl)C(C)C)c1 [compound 175] | 2 to 10 | 2 to 10 | > 10 |
